Where two headings read alike, the source gives them in different places.
Columns and labels:
[1] = tested on: human iPS-derived neuroprecursors; test: Differentiation of human iPS-derived neuroprecursors into MBP+ oligodendrocytes; type: cell-based; conditions: 1 μM in minimal medium, p<0.05
Description: NPC bearing a doxycycline inducible polycistronic construct containing SOX10, OLIG2 and NKX6.2^29 in a human safe harbor (passages 10 to 25) were singularized on day −3 by treatment with Accutase and plated on Matrigel-coated 12-well plates at a density of 100.000 cells per well in N2B27-medium containing equal parts of neurobasal (Invitrogen) and DMEM-F12 medium (Invitrogen) with 1:100 B27 supplement lacking vitamin A (Invitrogen), 1:200 N2 supplement (Invitrogen), 1% penicillin/streptomycin/glutamine (PSG), 3 μM CHIR99021 (Axon Medchem), 150 μM ascorbic acid and 0.5 μM SAG. The next day medium was changed to N2B27-medium containing 1 μg/ml doxycycline. On DO medium was changed to glial-induction medium (GIM) consisting of DMEM-F12 with 1:100 B27 supplement lacking vitamin A, 1:200 N2 supplement, 1% PSG, 1 μM SAG, 10 ng/mL NT3 (Peprotech), 10 ng/mL IGF-I (Peprotech), 200 μM AA (Sigma), 1:1000 Trace Elements B (Corning). For full medium conditions 10 ng/ml T3 was added. On Day 2 medium was changed to glial-differentiation medium (GDM) comprising DMEM-F12 with 1:100 B27 supplement lacking vitamin A, 1:200 N2 supplement, 1% PSG, 100 μM dbCAMP (Sigma), 100 μM AA, 1:1000. For full medium conditions 60 ng/mL T3, Trace Elements B 10 ng/mL, IGF-I, 10 ng/mL and NT3 were added to the culture. GDM was changed every other day. On day 7 cells were detached by treatment with Accutase and re-plated on laminin coated 48-well plates at densities of 10.000-12.000 cells per well. After 24 h cells were treated in minimal medium with either vehicle alone [0.01% (vol/vol) DMSO] as a negative control, 60 ng/mL T3 as a positive control, or with a drug candidate dissolved in DMSO. Medium was changed every other day. On D16 doxycycline was removed from the medium. Cells were fixed on D21 and analyzed via immunocytochemistry.
Immunocytochemistry. Cells were initially fixed with 4% PFA treatment for 20 min, RT. Following three washes with PBS cells were incubated with blocking solution containing 5% normal goat serum (NGS) and 5% FCS (fetal calf serum) in PBS for 30 min at RT to prevent unspecific binding of the antibodies. To detect intracellular antigens cells were permeabilized by adding 0.5% Triton X-100 to the Blocking-solution. Cells treated with Triton X-100 were washed three times with PBS each time for 5 min at RT. Primary antibodies (rat anti-MBP,1:50, Abcam, AB7349) were applied overnight, 4° C., in blocking solution. The next day cells were washed 3 times with PBS at RT, and afterwards incubated with secondary antibodies (AF488 Alexa Fluor anti-rat (goat), 1:500, Jackson/Dianova, #112-545-167) diluted in PBS for 1 h at RT. Secondary antibodies were subsequently removed by washing 3 times with PBS. Afterwards PBS containing a Dapi staining for nuclei was added for 5 minutes and afterwards washed off with PBS. Cells were kept at 4° C. until imaging.
Imaging and evaluation. From each condition (triplicates) 20-30 pictures were taken randomly chosen by the Dapi-signal. Cell numbers were determined by using an ImageJ Macro to count the nuclei whereas MBP positive cells were subsequently counted manually in black and white images.
The effect on oligodendroglial differentiation of 32 compounds (“Front runners”) was tested. Induced pluripotent stem cells in which the transcription factors SOX10, OLIG2, NKX6.2 were inserted in a doxycycline inducible manner into a human safe harbor were differentiated into neural stem cells. Differentiation into oligodendrocytes was induced by addition of doxycycline. Cells were cultured either in a minimal medium (MM) (negative control) or in MM with the different compounds at a concentration of 1 μM. Addition of T3 to the minimal medium served as a positive control.

[2] = tested on: murine cortical neurons (14 DIV); test: NMDA-mediated neuroprotective assay (CCK8 viability); type: cell-based, mouse; conditions: 1 μM, 3 h pre-treatment, NMDA 8 μM 24 h, p<0.05
Experimental: To assess neuroprotective activity of 160 selected non-toxic compounds on primary murine cortical neurons, obtained as described in the previous paragraph, ([…]), cultures were pre-treated with 1 μM compounds for either 3 or 24 hours, followed by 24 hours chronic stimulation with NMDA (8 μM) to induce neuronal damage. Each test plate included: a negative control (untreated), vehicle-treated control (0.02% vol/vol DMSO), a positive neurotoxic control—staurosporine 0.1 μM, a stressor—NMDA 8 μM, a positive neuroprotective control—NAC 300 μM, and a combination of stressor +neuroprotective molecule (NMDA+NAC). Cell viability was measured with Cell Counting Kit-8 assay compared to NMDA-treated control.
The potential neuroprotective activity of 160 selected non-toxic compounds was evaluated on murine cortical neurons (14 DIV) with either 3 h (FIG. 13) or 24 h compounds pre-treatment (FIG. 14). In assay with 3 h pre-treatment, 17 compounds were identified as potential NMDA-neuroprotective hits (marked with black asterisk in FIG. 13, stat. significant at p<0.05, Kruskal-Wallis test with post-hoc two-stage linear step-up procedure of Benjamini, Krieger and Yekutieli multiple comparison correction).

[3] = tested on: rat oligodendrocyte progenitor CG4 line; test: Differentiation assay on rat oligodendrocyte progenitor CG4 line (HCS, mCherry+); type: cell-based; conditions: secondary screen of 49 selected compounds, 1 μM, 5 days
In short: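 Double-reporter CG4 cells (mCherry in mature oligodendrocytes, EGFP in all lineage stages) proliferated 24 h, then given compounds at 1 μM for 5 days of differentiation, ⅔ medium changed at day 3. 9cis-RA as positive control, basal medium and 0.1% DMSO as negative; triplicates imaged by HCS, 35 fields/well.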

[4] = tested on: iPSC-derived glutamatergic neurons; test: ROS (tBuOOH)-mediated neuroprotective assay on hNeu; type: cell-based, human; conditions: control line CTR4, 1 μM, p<0.05
Experimental: Neuroprotective experiments were performed using iPSC-derived glutamatergic neurons from 3 healthy controls cultured for 30-40 DIV. Cells were pre-treated for 24 h with […] of compounds, vehicle (DMSO) or 5 nM Mito-Q (mitoquinone) served as a positive control. On the next day cells were incubated for 2 h with 100 µM of tert-butyl peroxide (tBuOOH, Sigma), then the medium was replaced and the viability readout by CCK8 viability assay kit (Dojindo) was performed on the following day. The cell viability was expressed as normalized Z score and compared to tBuOOH-treated cells with nonparametric Kruskal-Wallis test with Dunn's multiple comparisons correction.
32 “Front runners” and 7 compounds from short list were tested on iPSC-derived neurons from three control lines in ROS-mediated assay to evaluate a neuroprotective potential of selected compounds. Three independent experiments were performed for CTR4 and CTR8, FIG. 20 (A, C), while two independent experiments were performed for CTR7, FIG. 20 (B).

[5] = tested on: iPSC-derived neurons (DIV45)
Experimental: This protocol was modified from Yuchen Qi et al.^32 First, neural progenitors (NPCs) were generated from hiPSCs by dual-SMAD inhibition. Shortly, at day 0 iPSC colonies (confluent at 70-80%) were washed with PBS Dulbecco's w/o Calcium w/o Magnesium (Euroclone) and hiPSCs' maintenance medium (mTeSR™, StemCell Technologies) was replaced with neural induction medium composed by DMEM/F12 plus N2 medium (1×), B27 without RA supplement (0.5×) (Life Technology), added with SB431542 (10 μM) and LDN (500 nM). This medium was kept until day 4 (“induction”). At day 4, cells were splitted (1:3) with the same induction medium using Accutase®/Accumax™ (StemCell Technologies) dissociated solution. Entire medium was replaced daily up to days 14-16 until rosette formation was observed (“patterning”). At days 14-16, cells were detached by Accutase®/Accumax™ and re-plated on polyornitine/laminin/fibronectin coated MW96 or MW24 plates for terminal differentiation in Neurobasal medium supplemented with B27 (0.5×), BDNF (20 ng/ml), dbcAMP (500 μM), ascorbic acid (200 μM), PD0325901 (1 μM), SU5402 (5 μM), CHIR (3 μM), human recombinant insulin (5 μg/ml), supplemented with RI (Rock inhibitor) (1:3000) to reduce dissociation induced apoptosis. The half of differentiation medium was changed every 3-4 days, supplemented with 1 μg/ml laminin and DAPT (1-2 μM) until terminal maturation of neuronal population (MAP2+ cells). Cultures were characterized by immunocytochemistry and qRT-PCR and neuroprotective experiments were performed on days 30-40 of differentiation.
Evaluation of cytotoxicity of 160 selected compounds on iPSC-derived neurons (DIV45).

mouse cortical neurons = test: Morphological integrity evaluation, NMDA 8 μM (MAP2 neurite length and branching); type: cell-based; conditions: 3 h pre-treatment, NMDA 8 μM 24 h; Z>0.5 criteria
Experimental: Apart of viability/metabolic readout in NMDA-mediated neurotoxicity assay, a neuronal structural integrity was evaluated by MAP2 staining. Mouse cortical neurons (14 DIV) cultured in MW96 plates were fixed with 4% paraformaldehyde (PFA). Fixed cells were incubated with blocking solution (PBS 1×, donkey serum 5%, Triton 0.1%) for 1-hour, primary antibody (rabbit α-MAP2, 1:250, Millipore) was applied in the same solution overnight at +4° C. […] Nuclei were stained with 4′-6-diamidino-2-phenylindole (DAPI, Roche). Microscopy was performed using ArrayScan™XTI (ThermoFisher) imaging platform. 15 images per well were acquired and analyzed by CellProfiler. Total neurite length and the total number of non-trunk branches were analyzed. Total neurite length and the total number of branching were evaluated from 15 images/well, each compound or control was tested in triplicates. The total neurite length and total number of branches were converted to a standardized Z-score using formula: Xij=((Xij−μ)/σ), where xij is the raw measurement of the compound located in well (i, j), and μ and σ are, respectively, the mean and the standard deviation of all measurements of the plate.^31
The morphological integrity of mouse cortical neurons upon chronic 24 h NMDA (8 μM) exposure with compounds pre-treatment (3 h) in preventive regimen was evaluated. Control (basal), DMSO, N-acetylcysteine (NAC) served as positive controls, while staurosporine and NMDA were negative controls.

rat primary OPC cultures = test: Differentiation of rat primary OPC into MBP+ OLs; type: cell-based; conditions: 96 h, 4 days of differentiation, read-out: MBP+ differentiation (MBP+/SOX10+ OLs plus compounds / plus basal medium)
Experimental: Secondary validation on primary rat OPC differentiation. Re-validation of the best performing compounds promoting OPC differentiation (fold change >1.5) was performed on primary rat OPC cultures in 96 well-plate run in triplicates by triple immunolabeling for CNPase, MBP and SOX10 as a readout. Compounds at […] were added for 4 days of differentiation and then cell cultures were imaged with ArrayScanXTI platform, number of MBP+OLs were quantified by semi-automated software. Basal medium served as a negative control, 9 cis-RA ([…]) was a positive control.
Re-validation of the 49 compounds selected from the short list (160 compounds) using rat primary OPC cultures (compounds tested in triplicates in 3 independent experiments. The secondary validation screen of these compounds performed on rat primary OPC cultures selected 17 best lead compounds with a pro-differentiation activity (MBP+/SOX10+OLs plus compounds/MBP+SOX10+ plus basal medium fold increase) induced a strong differentiation into MBP+OLs (fold increase >1.6). Results are shown in FIG. 7.

| Compound | neuroprotection of viability/metabolic activity against NMDA [2] | CG4 differentiation compared with 9cis-RA positive control [3] | viability compared to DMSO ([5]; human) | further results |
| --- | --- | --- | --- | --- |
| CNC(=O)c1ccc(Oc2ccc3c(c2)CCN(C2CCC2)CC3)nc1 [GSK189254] | hit compounds | promoting differentiation significantly higher than 9cis-RA positive control | – | differentiation into MBP+ oligodendrocytes [1]: promote significantly (p<0.05) the differentiation into MBP+ oligodendrocytes; differentiation into MBP+ oligodendrocytes ([1]; listed as Gsk189254): promote significantly the differentiation into MBP+ oligodendrocytes; protection from tBuOOH insult [4]: protected from tBuOOH insult |
| CCn1c(=O)c2c(nc(/C=C/c3ccc(OC)c(OC)c3)n2C)n(CC)c1=O [Istradefylline] | – | – | 65-80% | – |
| CNCc1ccc(C)c(NC(=O)c2ccc(Nc3nc(-c4ccccc4)c4ccccc4n3)cc2)c1 [BMS-833923] | – | promoting differentiation significantly higher than 9cis-RA positive control | 65-80% | – |
| CC[C@@H](Oc1cccc(CN(CCCOc2ccc(OC)cc2)c2nc3ccccc3o2)c1)C(=O)O [K-877 Pemafibrate] | – | – | – | viability compared to DMSO [5]: 65-80% |
| Oc1ccc([C@H]2COc3cc(O)ccc3C2)cc1 [Equol] | – | promoting differentiation significantly higher than 9cis-RA positive control | – | protection from tBuOOH insult [4]: protected from tBuOOH insult |
| CC1(C)CC(C)(C)CC(C)(N)C1 [Neramexane] | hit compounds | promoting differentiation significantly higher than 9cis-RA positive control | – | preservation of neurite length and network integrity (branching) (mouse cortical neurons): preserved both neurite length and the network integrity (branching); viability compared to DMSO [5]: 65-80% |
| Cc1c(Cc2ccc3ccccc3n2)c2cc(F)ccc2n1CC(=O)O [0C000459, TIMAPIPRANT] | hit compounds | promoting differentiation significantly higher than 9cis-RA positive control | 65-80% | fold induction at 1 µM (rat primary OPC cultures): > 1.6 |
| OC1CCC(Nc2nc(-c3ccccc3)nc3[nH]ccc23)CC1 (centres unmarked) [Derenofylline] | – | – | 65-80% | – |
| Cc1nc(C#Cc2ccnc(Cl)c2)c(C)n1-c1ccc(F)cc1 [Basimglurant] | – | – | 65-80% | preservation of neurite length and network integrity (branching) (mouse cortical neurons): preserved both neurite length and the network integrity (branching) |
| COc1cccc(OC)c1-c1cc(C(=O)NC2(C(=O)O)C3CC4CC(C3)CC2C4)nn1-c1ccnc2cc(Cl)ccc12 (centres unmarked) [Reminertant] | – | – | 65-80% | – |

From patent publication US20240148745A1, “COMPOUNDS FOR USE IN PROGRESSIVE MULTIPLE SCLEROSIS” (FONDAZIONE CENTRO SAN RAFFAELE, priority 2021, published 2024)
